From ChEMBL document CHEMBL1201862, “PubChem BioAssay data set” (2004) come the findings set out here.

For assay [1], the target named is T1, Fatty acid synthase (Homo sapiens, UniProt P49327). Nature of the assay: FAS thioesterase domain inhibitors, dose response, biochemical, kinetic fluorescence intensity (AID 624326).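 Also: rate of fluorescence rise from hydrolysis of a fluorogenic O-methyl fluorescein ester substrate.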 The format is functional.
Assay [2] has as its target T1, Fatty acid synthase. Nature of the assay: FAS thioesterase domain inhibitors, dose response, biochemical, endpoint fluorescence intensity, uHTS hits (AID 624327).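 Also: fluorescence from hydrolysis of an O-methyl fluorescein acyl ester substrate by the enzyme.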 The format is functional.
Assay [3] has as its target Estrogen receptor beta (Homo sapiens, UniProt Q92731).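 Also: recombinant ER-beta bound to coactivator SRC1 peptide in presence of estradiol agonist; inhibitors block coactivator peptide binding and lower the FRET signal.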
Assay [4] concerns the target Albumin (Bos taurus, UniProt P02769). Nature of the assay: Counterscreen for inhibitors of T-cell receptor (TCR)-CD3 interaction: Fluorescence-based biochemical high throughput dose response assay to identify inhibitors of T-cell receptor (TCR)-CD3 interaction using a TAMRA-labeled BSA probe. It counts as functional.
In assay [5] the target is T2, Long-chain-fatty-acid--AMP ligase FadD28 (Mycobacterium tuberculosis, UniProt P9WQ59).
T2 sequence (P9WQ59 whole entry): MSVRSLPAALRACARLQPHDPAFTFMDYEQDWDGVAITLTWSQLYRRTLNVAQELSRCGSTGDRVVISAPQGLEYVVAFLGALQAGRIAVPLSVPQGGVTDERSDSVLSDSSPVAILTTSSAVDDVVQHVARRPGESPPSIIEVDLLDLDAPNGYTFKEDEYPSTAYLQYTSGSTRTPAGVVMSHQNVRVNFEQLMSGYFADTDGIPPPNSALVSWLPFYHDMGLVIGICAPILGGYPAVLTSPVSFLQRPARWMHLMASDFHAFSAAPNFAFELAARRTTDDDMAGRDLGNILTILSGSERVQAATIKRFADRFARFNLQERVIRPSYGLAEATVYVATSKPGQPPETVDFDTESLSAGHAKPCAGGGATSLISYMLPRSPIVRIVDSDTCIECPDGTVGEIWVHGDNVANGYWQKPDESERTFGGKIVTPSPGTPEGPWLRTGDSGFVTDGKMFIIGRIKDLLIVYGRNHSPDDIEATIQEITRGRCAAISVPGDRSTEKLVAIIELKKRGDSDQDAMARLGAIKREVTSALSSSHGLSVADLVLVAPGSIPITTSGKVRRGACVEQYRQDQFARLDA
Nature of the assay: Fluorescence polarization aasay to screen for inhibitors that compete for the binding of FadD28 to a bisubstrate Measured in Biochemical System Using Plate Reader - 2147-01_Inhibitor_Dose_CherryPick_Activity. It counts as functional, Mycobacterium tuberculosis H37Rv. In general terms: Polarisation of emitted light reports the rotation of a fluorescent probe.

Assay [6] addresses T3, Small ubiquitin-related modifier 1 (Homo sapiens, UniProt P63165). As to the kind of experiment: inhibitors of SUMO1 peptide binding, dose response, biochemical, fluorescence polarization, uHTS hits (AID 624382). The format is functional. The conditions noted are these: read-out: IC50_Mean.
For assay [7], the target named is T3, Small ubiquitin-related modifier 1. Nature of the assay: inhibitors of SUMO1 partner interactions, dose response, biochemical, FRET (AID 624383). The note with it: read-out: IC50_Mean. It counts as functional.
The target in assay [8] is T4, Leucine aminopeptidase (Plasmodium falciparum 3D7, UniProt Q8IL11).
T4 sequence (Q8IL11 whole entry): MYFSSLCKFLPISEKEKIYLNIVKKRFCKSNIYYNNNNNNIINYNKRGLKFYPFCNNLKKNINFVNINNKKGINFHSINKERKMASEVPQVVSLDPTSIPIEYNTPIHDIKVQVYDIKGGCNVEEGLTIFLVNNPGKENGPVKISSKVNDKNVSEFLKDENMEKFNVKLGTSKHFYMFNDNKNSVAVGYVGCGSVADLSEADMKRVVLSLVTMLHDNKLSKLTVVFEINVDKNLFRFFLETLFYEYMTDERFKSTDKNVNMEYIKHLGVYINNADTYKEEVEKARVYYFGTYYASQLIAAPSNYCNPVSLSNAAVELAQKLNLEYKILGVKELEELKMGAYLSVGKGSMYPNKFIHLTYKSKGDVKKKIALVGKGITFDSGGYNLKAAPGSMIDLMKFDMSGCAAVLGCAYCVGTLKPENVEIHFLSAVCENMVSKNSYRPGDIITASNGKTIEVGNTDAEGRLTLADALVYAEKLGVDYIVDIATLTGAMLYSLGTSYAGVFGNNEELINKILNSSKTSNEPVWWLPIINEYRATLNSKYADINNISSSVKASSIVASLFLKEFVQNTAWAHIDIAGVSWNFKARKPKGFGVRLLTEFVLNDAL
Nature of the assay: P. falciparum M17LAP inhibitors, primary screen, biochemical, fluorogenic H-Leu-NHMec substrate, 1536-well (AID 1619). It counts as functional.

For assay [9], the target named is T5, Short transient receptor potential channel 4 (Mus musculus, UniProt Q9QUQ5).
T5 sequence (Q9QUQ5 whole entry): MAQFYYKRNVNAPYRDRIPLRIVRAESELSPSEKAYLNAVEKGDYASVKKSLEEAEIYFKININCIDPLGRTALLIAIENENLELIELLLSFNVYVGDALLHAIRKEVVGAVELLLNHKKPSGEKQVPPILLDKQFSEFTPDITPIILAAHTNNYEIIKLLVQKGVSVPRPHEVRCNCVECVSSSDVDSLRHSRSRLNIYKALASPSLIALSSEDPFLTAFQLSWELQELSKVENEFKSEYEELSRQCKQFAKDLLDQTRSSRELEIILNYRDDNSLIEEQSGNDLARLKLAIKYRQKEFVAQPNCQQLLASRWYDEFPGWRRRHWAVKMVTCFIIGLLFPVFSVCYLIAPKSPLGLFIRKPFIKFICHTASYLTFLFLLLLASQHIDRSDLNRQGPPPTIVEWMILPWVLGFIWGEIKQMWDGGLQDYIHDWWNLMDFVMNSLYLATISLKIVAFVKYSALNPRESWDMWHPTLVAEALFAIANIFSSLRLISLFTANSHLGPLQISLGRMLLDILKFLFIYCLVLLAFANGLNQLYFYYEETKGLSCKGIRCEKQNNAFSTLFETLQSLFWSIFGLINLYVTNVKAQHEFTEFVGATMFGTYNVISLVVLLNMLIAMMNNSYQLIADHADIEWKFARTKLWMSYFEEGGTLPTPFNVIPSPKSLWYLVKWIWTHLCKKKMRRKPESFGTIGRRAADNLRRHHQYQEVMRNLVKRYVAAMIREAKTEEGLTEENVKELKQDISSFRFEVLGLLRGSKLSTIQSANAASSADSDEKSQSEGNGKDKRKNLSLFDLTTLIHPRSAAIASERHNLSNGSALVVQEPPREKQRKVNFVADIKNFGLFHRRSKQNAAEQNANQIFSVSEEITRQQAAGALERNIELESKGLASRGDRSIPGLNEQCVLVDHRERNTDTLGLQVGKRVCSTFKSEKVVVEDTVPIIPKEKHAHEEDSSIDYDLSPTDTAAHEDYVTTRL
Nature of the assay: mouse TRPC4 channel activators, dose response, cell-based, HEK293 TRPC4/mu-opioid, Fluo-4 calcium (AID 434937). The format is functional.

In assay [10] the target is Genome polyprotein (dengue virus type 2, UniProt P29990). Nature of the assay: Dengue-2 NS5 methyltransferase inhibitors, primary screen, biochemical, confirmation dose response (AID 588689). It counts as functional.
Assay [11] addresses T6, High affinity choline transporter 1 (Homo sapiens, UniProt Q9GZV3).
T6 sequence (Q9GZV3 whole entry): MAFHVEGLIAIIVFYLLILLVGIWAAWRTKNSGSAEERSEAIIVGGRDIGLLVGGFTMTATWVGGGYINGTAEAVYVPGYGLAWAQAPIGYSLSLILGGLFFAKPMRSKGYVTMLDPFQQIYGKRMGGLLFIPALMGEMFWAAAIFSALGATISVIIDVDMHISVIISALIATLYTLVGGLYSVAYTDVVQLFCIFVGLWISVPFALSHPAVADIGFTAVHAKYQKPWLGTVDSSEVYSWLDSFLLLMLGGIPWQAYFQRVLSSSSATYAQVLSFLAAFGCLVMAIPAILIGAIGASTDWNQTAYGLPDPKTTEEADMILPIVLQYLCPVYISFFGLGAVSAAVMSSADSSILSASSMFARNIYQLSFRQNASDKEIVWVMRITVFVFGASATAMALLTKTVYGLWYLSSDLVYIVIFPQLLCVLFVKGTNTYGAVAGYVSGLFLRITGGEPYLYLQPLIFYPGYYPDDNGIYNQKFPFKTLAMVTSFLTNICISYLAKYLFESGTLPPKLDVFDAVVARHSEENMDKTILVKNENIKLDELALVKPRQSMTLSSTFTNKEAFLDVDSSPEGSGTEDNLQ
Nature of the assay: CHT inhibitors, dose response, cell-based, 5-point CRC, membrane potential dye (AID 504840). The format is functional.

In assay [12] the target is T7, Histone-lysine N-methyltransferase NSD2 (Homo sapiens, UniProt O96028).
T7 sequence (O96028 whole entry): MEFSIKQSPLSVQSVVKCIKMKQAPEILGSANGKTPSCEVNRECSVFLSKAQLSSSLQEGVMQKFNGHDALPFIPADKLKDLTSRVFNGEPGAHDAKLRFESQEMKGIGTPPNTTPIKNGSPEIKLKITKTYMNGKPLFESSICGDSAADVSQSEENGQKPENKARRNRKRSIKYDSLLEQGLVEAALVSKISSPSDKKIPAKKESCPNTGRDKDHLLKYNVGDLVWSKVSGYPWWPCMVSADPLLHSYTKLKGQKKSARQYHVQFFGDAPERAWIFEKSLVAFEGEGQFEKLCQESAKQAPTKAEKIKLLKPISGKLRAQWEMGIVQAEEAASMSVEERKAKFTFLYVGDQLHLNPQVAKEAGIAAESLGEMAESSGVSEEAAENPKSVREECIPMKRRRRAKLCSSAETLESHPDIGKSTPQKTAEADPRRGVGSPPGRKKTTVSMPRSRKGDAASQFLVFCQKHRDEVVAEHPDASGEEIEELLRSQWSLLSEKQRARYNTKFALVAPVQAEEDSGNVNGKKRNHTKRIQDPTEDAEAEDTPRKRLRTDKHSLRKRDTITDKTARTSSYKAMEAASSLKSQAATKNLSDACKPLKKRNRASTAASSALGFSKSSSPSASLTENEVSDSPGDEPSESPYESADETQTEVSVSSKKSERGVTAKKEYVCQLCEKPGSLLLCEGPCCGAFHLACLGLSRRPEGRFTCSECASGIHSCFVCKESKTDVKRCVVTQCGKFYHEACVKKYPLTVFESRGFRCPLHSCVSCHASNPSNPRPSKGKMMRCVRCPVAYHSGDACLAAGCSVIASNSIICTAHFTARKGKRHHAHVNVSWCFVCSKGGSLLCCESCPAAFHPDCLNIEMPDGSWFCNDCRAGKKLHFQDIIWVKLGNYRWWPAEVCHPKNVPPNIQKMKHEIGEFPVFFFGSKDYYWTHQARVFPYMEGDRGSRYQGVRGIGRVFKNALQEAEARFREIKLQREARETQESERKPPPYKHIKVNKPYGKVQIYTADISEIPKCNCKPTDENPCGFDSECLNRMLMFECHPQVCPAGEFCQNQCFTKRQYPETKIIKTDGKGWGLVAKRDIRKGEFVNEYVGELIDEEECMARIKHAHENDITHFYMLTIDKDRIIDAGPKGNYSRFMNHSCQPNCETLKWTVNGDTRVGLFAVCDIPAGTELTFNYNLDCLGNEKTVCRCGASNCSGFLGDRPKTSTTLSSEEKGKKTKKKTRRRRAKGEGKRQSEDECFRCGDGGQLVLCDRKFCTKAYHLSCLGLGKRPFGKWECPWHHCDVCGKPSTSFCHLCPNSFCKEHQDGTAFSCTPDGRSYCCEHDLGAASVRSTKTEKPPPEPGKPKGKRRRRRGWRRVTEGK
It counts as biochemical.

SMILES strings stand for the structures. The source made the active and inactive calls.

T1 sequence (P49327 whole entry, the tested form may be a part): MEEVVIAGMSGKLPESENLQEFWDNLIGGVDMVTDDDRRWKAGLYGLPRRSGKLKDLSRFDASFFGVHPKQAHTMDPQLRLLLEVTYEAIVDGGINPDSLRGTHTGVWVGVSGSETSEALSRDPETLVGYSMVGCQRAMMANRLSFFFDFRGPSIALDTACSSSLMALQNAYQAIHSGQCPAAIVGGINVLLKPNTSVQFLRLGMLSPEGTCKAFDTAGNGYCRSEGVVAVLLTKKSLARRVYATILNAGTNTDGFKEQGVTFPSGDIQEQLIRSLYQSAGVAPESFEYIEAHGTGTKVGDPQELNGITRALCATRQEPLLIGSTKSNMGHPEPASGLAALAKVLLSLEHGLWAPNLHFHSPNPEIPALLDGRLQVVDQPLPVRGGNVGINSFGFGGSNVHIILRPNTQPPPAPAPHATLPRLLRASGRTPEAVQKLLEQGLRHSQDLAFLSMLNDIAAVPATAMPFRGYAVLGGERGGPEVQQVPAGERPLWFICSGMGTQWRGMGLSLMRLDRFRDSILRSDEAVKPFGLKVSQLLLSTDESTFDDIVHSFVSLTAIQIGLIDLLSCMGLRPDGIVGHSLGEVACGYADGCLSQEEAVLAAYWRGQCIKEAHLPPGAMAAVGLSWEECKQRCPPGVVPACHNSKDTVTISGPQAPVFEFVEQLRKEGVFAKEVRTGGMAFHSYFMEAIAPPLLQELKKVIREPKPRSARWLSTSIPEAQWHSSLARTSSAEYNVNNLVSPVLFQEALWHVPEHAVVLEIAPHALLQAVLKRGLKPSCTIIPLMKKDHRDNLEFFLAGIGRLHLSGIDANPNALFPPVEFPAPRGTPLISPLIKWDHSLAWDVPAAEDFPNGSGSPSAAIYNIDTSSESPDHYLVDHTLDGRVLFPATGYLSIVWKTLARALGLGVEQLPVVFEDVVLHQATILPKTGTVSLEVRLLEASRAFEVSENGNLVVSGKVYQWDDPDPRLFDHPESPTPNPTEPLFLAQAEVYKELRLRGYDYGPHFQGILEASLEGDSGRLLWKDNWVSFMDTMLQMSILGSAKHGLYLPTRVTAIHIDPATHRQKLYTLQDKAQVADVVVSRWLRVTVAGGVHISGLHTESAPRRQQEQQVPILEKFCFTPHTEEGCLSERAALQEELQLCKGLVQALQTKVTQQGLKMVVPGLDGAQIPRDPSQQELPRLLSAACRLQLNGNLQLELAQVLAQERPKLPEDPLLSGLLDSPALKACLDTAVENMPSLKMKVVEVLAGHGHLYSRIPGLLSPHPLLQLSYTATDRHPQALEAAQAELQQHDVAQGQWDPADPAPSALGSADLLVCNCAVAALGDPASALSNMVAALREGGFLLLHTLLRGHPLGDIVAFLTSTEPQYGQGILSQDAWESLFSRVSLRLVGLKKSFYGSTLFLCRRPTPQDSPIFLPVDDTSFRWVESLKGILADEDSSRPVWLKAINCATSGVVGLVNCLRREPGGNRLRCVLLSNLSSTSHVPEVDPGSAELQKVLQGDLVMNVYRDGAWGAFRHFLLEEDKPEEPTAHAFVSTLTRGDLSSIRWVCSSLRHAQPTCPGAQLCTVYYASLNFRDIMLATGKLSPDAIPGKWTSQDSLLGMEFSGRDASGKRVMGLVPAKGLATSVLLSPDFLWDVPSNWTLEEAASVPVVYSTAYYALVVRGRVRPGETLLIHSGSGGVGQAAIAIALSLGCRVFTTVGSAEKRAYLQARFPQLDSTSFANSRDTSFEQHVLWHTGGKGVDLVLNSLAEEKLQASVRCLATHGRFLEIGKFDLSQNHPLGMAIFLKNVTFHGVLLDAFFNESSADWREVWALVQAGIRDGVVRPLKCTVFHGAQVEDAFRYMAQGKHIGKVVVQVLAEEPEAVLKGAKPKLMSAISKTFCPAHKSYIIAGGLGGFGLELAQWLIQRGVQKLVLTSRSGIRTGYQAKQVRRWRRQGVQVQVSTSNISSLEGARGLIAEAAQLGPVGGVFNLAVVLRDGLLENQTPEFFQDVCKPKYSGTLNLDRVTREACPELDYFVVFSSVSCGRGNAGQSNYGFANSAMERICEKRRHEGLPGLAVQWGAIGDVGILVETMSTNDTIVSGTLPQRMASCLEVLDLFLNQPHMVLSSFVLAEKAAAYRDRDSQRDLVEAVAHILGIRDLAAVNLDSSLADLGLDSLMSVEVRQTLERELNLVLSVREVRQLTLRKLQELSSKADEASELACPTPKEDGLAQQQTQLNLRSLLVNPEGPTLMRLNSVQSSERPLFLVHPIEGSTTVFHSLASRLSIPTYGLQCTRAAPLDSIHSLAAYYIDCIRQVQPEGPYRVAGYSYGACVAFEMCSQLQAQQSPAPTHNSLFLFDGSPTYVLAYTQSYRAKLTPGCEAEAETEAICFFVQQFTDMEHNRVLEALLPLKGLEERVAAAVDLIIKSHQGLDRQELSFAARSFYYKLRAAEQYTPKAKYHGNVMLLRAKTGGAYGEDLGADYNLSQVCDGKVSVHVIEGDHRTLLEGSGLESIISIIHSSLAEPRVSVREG
T3 sequence (P63165 whole entry): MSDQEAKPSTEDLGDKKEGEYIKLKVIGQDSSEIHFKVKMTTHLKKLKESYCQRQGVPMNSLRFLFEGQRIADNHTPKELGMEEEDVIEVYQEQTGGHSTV
Genome polyprotein, sequence (P29990 2492-3391 limits assumed): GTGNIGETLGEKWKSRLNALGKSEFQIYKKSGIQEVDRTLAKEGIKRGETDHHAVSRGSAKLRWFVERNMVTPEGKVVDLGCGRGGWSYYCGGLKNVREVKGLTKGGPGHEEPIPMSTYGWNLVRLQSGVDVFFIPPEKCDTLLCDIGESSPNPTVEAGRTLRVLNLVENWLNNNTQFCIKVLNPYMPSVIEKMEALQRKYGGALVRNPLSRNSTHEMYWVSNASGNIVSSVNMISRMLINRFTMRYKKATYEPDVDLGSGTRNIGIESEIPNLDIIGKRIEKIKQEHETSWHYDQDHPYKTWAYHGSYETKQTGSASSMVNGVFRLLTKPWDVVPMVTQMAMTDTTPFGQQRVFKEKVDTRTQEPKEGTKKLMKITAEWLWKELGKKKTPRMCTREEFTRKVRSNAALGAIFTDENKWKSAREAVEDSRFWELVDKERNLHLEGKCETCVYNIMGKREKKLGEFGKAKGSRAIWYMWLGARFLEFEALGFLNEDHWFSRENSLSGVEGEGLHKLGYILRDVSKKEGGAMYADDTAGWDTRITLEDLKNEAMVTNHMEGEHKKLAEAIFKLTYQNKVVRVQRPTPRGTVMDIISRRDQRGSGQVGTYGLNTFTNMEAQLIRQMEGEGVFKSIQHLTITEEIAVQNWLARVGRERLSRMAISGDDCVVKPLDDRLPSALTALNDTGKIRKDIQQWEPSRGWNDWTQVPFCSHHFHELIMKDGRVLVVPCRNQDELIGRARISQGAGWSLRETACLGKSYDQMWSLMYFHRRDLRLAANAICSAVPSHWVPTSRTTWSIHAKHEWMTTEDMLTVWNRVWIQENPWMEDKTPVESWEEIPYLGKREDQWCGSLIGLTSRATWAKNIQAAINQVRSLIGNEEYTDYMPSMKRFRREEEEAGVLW
Albumin, sequence (P02769 whole entry): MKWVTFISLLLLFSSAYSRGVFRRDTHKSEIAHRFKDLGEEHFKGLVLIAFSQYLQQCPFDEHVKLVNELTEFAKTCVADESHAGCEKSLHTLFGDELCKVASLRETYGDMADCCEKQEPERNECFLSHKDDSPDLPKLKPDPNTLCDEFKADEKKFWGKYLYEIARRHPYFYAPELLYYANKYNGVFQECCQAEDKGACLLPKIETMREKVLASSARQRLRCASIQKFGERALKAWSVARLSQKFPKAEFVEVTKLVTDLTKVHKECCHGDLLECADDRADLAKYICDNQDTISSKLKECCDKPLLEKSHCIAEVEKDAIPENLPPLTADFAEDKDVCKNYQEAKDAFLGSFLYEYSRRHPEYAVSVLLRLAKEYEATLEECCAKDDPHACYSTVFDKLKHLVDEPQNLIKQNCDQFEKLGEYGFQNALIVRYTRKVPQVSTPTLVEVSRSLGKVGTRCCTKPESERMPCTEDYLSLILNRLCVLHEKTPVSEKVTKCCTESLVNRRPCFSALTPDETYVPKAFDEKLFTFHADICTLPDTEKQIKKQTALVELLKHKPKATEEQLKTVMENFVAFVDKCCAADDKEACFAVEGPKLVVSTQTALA
Estrogen receptor beta, sequence (Q92731 whole entry): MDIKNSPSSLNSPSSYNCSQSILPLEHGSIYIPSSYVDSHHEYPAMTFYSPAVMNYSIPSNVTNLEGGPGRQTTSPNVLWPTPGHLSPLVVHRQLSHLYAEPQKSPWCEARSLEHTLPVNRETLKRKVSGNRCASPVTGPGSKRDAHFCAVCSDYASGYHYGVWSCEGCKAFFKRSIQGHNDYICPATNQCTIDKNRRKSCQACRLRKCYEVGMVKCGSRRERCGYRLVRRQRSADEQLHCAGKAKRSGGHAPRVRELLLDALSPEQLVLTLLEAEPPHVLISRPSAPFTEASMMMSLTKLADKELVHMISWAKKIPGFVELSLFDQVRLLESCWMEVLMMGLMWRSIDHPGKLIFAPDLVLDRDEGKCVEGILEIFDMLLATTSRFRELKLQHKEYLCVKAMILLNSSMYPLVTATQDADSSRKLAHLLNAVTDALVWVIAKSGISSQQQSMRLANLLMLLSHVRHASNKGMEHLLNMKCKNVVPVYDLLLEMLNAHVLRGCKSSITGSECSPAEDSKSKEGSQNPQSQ

Turning to `C=CCn1c(SCc2cc([N+](=O)[O-])cc3c2OCOC3)nc2cc(C(=O)O)ccc2c1=O`, the IC50 in assay [1] was 1.6 µM (active); in [2] it was 2.57 µM (active). The matching figures for `C=CCNC(=O)/C(=C\c1ccc(OC)cc1)NC(=O)c1ccc([N+](=O)[O-])cc1`: 2.21 µM (active) and 2.93 µM (active).

For the molecule `CC(C)CSc1nc2c(c(=O)[nH]c(=O)n2C)n1CC(O)COc1cccc2ccccc12` (configuration not stated), in assay [3], the IC50 is > 50 µM (not active).

As for `C=CCNC(=S)NNC(=O)c1cccn(Cc2cccc(Cl)c2)c1=O`, in assay [4], the IC50 is > 94.1 µM (inactive). Consider `CC(=O)c1cccc(NC(=O)NC2CCCCCCC2)c1`, for which the AC50 (usually the midpoint of the concentration-response curve, whichever way the signal moves) in assay [5] was > 100 µM (inactive). For `Cc1cccc(C(=O)NNC(=O)c2ccc(NS(=O)(=O)c3cccs3)cc2)c1C`, the concentration at half-maximal activity (AC50) in [5] is 43.8 µM (active). Same read-out and setting: the same measure for `O=C(O)CCc1ccc(-c2ccc(Cl)cc2)n1Cc1ccco1`: 21.8 µM (active). Consider `CSc1ncc(Cl)c(C(=O)Nc2nnc(SC/C=C/c3ccccc3)s2)n1`, for which the AC50 in assay [5] is > 100 µM (inactive). For `COc1ccc(C(=O)NC(CC(=O)O)c2cc([N+](=O)[O-])ccc2Cl)c(SC)c1` (configuration not stated), the results for the IC50 in assay [1] and in assay [2] were 8.79 µM (active) and 7.33 µM (active), respectively. Regarding `Cc1onc(-c2ccccc2)c1C(=O)NNC(=S)NC(=O)c1ccc(F)cc1`, the IC50 in assay [6] was > 66.6 µM (inactive); in [7] it was 100 µM (inactive); in [8], 79.4 µM (active). In assay [9], the EC50 (as a rule, the midpoint of the concentration-response curve) was 5.96 µM (active). As for `O=C(CC(C(=O)O)c1ccc(Cl)cc1)c1ccc(Cl)c(Cl)c1` (configuration not stated), the IC50 in assay [1] is 4.21 µM (active); in [2] it was 2.11 µM (active).

Consider `CCCn1nc(NS(=O)(=O)c2cccc3nonc23)c2cc3cccc(C)c3nc21`, for which the IC50 in [10] was 39.8 µM (active); in assay [11] it was 3.54 µM (active). Moreover, the AC50 in assay [5] is > 100 µM (inactive). As for `CNCCCC1Sc2ccccc2Oc2ccccc21` (configuration not stated), the AC50 in assay [12] was 9.84 µM (active).
